Data published in publication PMC5677090, “Multiple Behavior Phenotypes of the Fragile-X Syndrome Mouse Model Respond to Chronic Inhibition of Phosphodiesterase-4D (PDE4D)” (Scientific Reports, 2017).
pIC50: −log10 of the molar value.

Target: T1, PDE4B (Mus musculus, UniProt Q8VBU5)
T1 sequence (Q8VBU5 1-721): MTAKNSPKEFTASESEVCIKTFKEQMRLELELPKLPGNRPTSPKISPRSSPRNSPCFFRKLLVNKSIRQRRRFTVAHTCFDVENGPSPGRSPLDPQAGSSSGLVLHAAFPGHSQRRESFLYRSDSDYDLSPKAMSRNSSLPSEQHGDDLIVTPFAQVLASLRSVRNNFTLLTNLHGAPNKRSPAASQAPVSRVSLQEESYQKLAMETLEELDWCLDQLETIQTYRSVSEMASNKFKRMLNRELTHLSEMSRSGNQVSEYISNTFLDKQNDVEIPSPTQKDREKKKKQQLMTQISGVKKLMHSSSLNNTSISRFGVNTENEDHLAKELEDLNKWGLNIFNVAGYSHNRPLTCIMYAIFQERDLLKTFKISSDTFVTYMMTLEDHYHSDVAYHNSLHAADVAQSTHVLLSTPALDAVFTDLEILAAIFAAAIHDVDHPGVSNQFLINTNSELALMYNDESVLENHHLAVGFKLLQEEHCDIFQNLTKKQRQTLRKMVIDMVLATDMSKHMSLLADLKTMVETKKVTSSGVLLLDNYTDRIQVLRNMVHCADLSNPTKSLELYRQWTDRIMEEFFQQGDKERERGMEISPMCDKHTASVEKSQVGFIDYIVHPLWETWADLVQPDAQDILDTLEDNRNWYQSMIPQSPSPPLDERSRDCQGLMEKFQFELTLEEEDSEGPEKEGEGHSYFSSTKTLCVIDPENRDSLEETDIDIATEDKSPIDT
Test: PDE4B inhibition IC50, selectivity comparison (assay details not given)
Format: biochemical

Compound `O=C(O)Cc1ccc(Cc2cc(-c3cccc(Cl)c3)nc(C(F)(F)F)c2)cc1` [BPN14770] has a pIC50 of 5.67.
